Measured values taken from PubChem BioAssay AID1745844 (Carcinogenic Potency Database (CPDB), 2022).
Calls of active or inactive are those of the source. How the calls were made is not given here.

System: rodent lifetime carcinogenesis bioassay, tumor incidence TD50
Test: carcinogenic potency in animals, long-term in vivo studies, CPDB compilation (AID 1745844)

CCC[N+](=O)[O-]
carcinogen call (rat, strain Long-Evans BLU:(LE), females, inhaled, site: liver, lesion: hepatocellular carcinoma, dosed 52 weeks, study length 52 weeks): negative (inactive) | carcinogen call (rat, strain Long-Evans BLU:(LE), females, inhaled, site: liver, lesion: hepatocellular carcinoma, dosed 52 weeks, study length 93 weeks): negative (inactive) | carcinogen call (rat, strain Long-Evans BLU:(LE), females, inhaled, site: liver, lesion: hepatocellular carcinoma, dosed 78 weeks, study length 78 weeks): negative (inactive) | carcinogen call (rat, strain Long-Evans BLU:(LE), females, inhaled, site: liver, lesion: hepatocellular carcinoma, dosed 93 weeks, study length 93 weeks): negative (inactive) | carcinogen call (rat, strain Long-Evans BLU:(LE), males, inhaled, site: liver, lesion: hepatocellular carcinoma, dosed 52 weeks, study length 52 weeks): negative (inactive) | carcinogen call (rat, strain Long-Evans BLU:(LE), males, inhaled, site: liver, lesion: hepatocellular carcinoma, dosed 52 weeks, study length 93 weeks): negative (inactive) | carcinogen call (rat, strain Long-Evans BLU:(LE), males, inhaled, site: liver, lesion: hepatocellular carcinoma, dosed 78 weeks, study length 78 weeks): negative (inactive) | carcinogen call (rat, strain Long-Evans BLU:(LE), males, inhaled, site: liver, lesion: hepatocellular carcinoma, dosed 93 weeks, study length 93 weeks): negative (inactive) | TD50 (rat, strain Sprague-Dawley, males, by gavage, site: liver, lesion: hepatocellular adenoma, dosed 26 weeks, study length 77 weeks): 0.872 mg/kg/day (inactive)

CCCc1cc(=O)[nH]c(=S)[nH]1
TD50 (mouse, strain C57BL, both sexes, in feed, site: pituitary gland, lesion: adenoma, dosed 73 weeks, study length 73 weeks): 409 mg/kg/day | TD50 (rat, strain Long-Evans, males, in feed, site: thyroid gland, lesion: adenoma, dosed 52 weeks, study length 52 weeks): 10.3 mg/kg/day | TD50 (rat, strain Wistar albino, females, in drinking water, site: thyroid gland, lesion: adenoma, dosed 78 weeks, study length 78 weeks): 15.8 mg/kg/day | TD50 (rat, strain Wistar albino, females, in drinking water, site: thyroid gland, lesion: carcinoma, dosed 78 weeks, study length 78 weeks): 115 mg/kg/day | TD50 (rat, strain Wistar albino, males, in drinking water, site: thyroid gland, lesion: adenoma, dosed 78 weeks, study length 78 weeks): 17.2 mg/kg/day | TD50 (rat, strain Wistar albino, males, in drinking water, site: thyroid gland, lesion: carcinoma, dosed 78 weeks, study length 78 weeks): 79.3 mg/kg/day | carcinogen call (rat, strain Wistar, males, in drinking water, site: thyroid gland, lesion: adenoma, dosed 26 weeks, study length 104 weeks): negative (inactive)

CCCCNNCCCC
TD50 (mouse, strain Swiss albino, females, in drinking water, site: all sites, lesion: malignant lymphoma, dosed 93 weeks, study length 93 weeks): 198 mg/kg/day | carcinogen call (mouse, strain Swiss albino, females, in drinking water, site: liver, lesion: angioma, dosed 93 weeks, study length 93 weeks): negative (inactive) | carcinogen call (mouse, strain Swiss albino, females, in drinking water, site: liver, lesion: angiosarcoma, dosed 93 weeks, study length 93 weeks): negative (inactive) | TD50 (mouse, strain Swiss albino, females, in drinking water, site: lung, lesion: several types, types named in the paper, dosed 93 weeks, study length 93 weeks): 69.8 mg/kg/day | TD50 (mouse, strain Swiss albino, males, in drinking water, site: all sites, lesion: malignant lymphoma, dosed 87 weeks, study length 87 weeks): 886 mg/kg/day | TD50 (mouse, strain Swiss albino, males, in drinking water, site: kidney, lesion: several types, types named in the paper, dosed 87 weeks, study length 87 weeks): 449 mg/kg/day | carcinogen call (mouse, strain Swiss albino, males, in drinking water, site: liver, lesion: angioma, dosed 87 weeks, study length 87 weeks): negative (inactive) | carcinogen call (mouse, strain Swiss albino, males, in drinking water, site: liver, lesion: angiosarcoma, dosed 87 weeks, study length 87 weeks): negative (inactive) | TD50 (mouse, strain Swiss albino, males, in drinking water, site: lung, lesion: several types, types named in the paper, dosed 87 weeks, study length 87 weeks): 34.5 mg/kg/day

CC(=O)N[C@@H](CS)C(=O)O
carcinogen call (rat, strain Fischer 344, males, in feed, site: liver, lesion: several types, types named in the paper, dosed 98 weeks, study length 98 weeks): negative (inactive)

C[C@H]([C@H](O)CCC(C)(C)O)[C@H]1CC[C@@]2(O)C3=CC(=O)[C@@H]4C[C@@H](O)[C@@H](O)C[C@]4(C)[C@H]3CC[C@]12C
TD50 (mouse, strain Swiss albino, females, by gavage, site: any site (literature study), lesion: malignant tumor, dosed 95 weeks, study length 95 weeks): 0.0264 mg/kg/day | TD50 (mouse, strain Swiss albino, females, by gavage, site: mammary gland, lesion: adenocarcinoma, dosed 95 weeks, study length 95 weeks): 0.0264 mg/kg/day | TD50 (mouse, strain Swiss albino, males, by gavage, site: any site (literature study), lesion: malignant tumor, dosed 95 weeks, study length 95 weeks): 0.0558 mg/kg/day | TD50 (mouse, strain Swiss albino, males, by gavage, site: lung, lesion: adenocarcinoma, dosed 95 weeks, study length 95 weeks): 0.0558 mg/kg/day

CCCNN
TD50 (mouse, strain Swiss albino, females, in drinking water, site: lung, lesion: adenocarcinoma, dosed 99 weeks, study length 99 weeks): 109 mg/kg/day | TD50 (mouse, strain Swiss albino, females, in drinking water, site: lung, lesion: adenoma, dosed 99 weeks, study length 99 weeks): 42.7 mg/kg/day | TD50 (mouse, strain Swiss albino, females, in drinking water, site: lung, lesion: several types, types named in the paper, dosed 99 weeks, study length 99 weeks): 41.4 mg/kg/day | TD50 (mouse, strain Swiss albino, males, in drinking water, site: liver, lesion: liver-cell carcinoma, dosed 93 weeks, study length 93 weeks): 102 mg/kg/day (inactive) | TD50 (mouse, strain Swiss albino, males, in drinking water, site: liver, lesion: several types, types named in the paper, dosed 93 weeks, study length 93 weeks): 80.8 mg/kg/day | TD50 (mouse, strain Swiss albino, males, in drinking water, site: lung, lesion: adenoma, dosed 93 weeks, study length 93 weeks): 41.3 mg/kg/day | TD50 (mouse, strain Swiss albino, males, in drinking water, site: lung, lesion: several types, types named in the paper, dosed 93 weeks, study length 93 weeks): 50.5 mg/kg/day

COc1cc(CNC(=O)CCCC/C=C/C(C)C)ccc1O
carcinogen call (mouse, strain B6C3F1, females, in feed, site: any site (literature study), lesion: several types, types named in the paper, dosed 79 weeks, study length 83 weeks): negative (inactive) | carcinogen call (mouse, strain B6C3F1, females, in feed, site: liver, lesion: several types, types named in the paper, dosed 79 weeks, study length 83 weeks): negative (inactive) | carcinogen call (mouse, strain B6C3F1, females, in feed, site: lung, lesion: adenoma, dosed 79 weeks, study length 83 weeks): negative (inactive) | TD50 (mouse, strain B6C3F1, males, in feed, site: any site (literature study), lesion: several types, types named in the paper, dosed 79 weeks, study length 83 weeks): 2040 mg/kg/day (inactive) | carcinogen call (mouse, strain B6C3F1, males, in feed, site: liver, lesion: several types, types named in the paper, dosed 79 weeks, study length 83 weeks): negative (inactive) | TD50 (mouse, strain B6C3F1, males, in feed, site: lung, lesion: adenoma, dosed 79 weeks, study length 83 weeks): 16100 mg/kg/day (inactive) | TD50 (mouse, strain Swiss albino, females, in feed, site: cecum, lesion: polypoid adenoma, dosed 152 weeks, study length 152 weeks): 167 mg/kg/day | TD50 (mouse, strain Swiss albino, females, in feed, site: duodenum, lesion: adenocarcinoma, dosed 152 weeks, study length 152 weeks): 2310 mg/kg/day | TD50 (mouse, strain Swiss albino, females, in feed, site: lung, lesion: adenoma, dosed 152 weeks, study length 152 weeks): 225 mg/kg/day | TD50 (mouse, strain Swiss albino, females, in feed, site: lung, lesion: several types, types named in the paper, dosed 152 weeks, study length 152 weeks): 1080 mg/kg/day | carcinogen call (mouse, strain Swiss albino, males, in feed, site: cecum, lesion: polypoid adenoma, dosed 124 weeks, study length 124 weeks): positive | TD50 (mouse, strain Swiss albino, males, in feed, site: duodenum, lesion: several types, types named in the paper, dosed 124 weeks, study length 124 weeks): 404 mg/kg/day

CC1CN(N=O)CC(C)N1C(=O)c1ccccc1 (stereo unspecified)
carcinogen call (rat, strain Fischer 344, females, in drinking water, site: any site (literature study), lesion: several types, types named in the paper, dosed 50 weeks, study length 125 weeks): positive | TD50 (rat, strain Fischer 344, females, in drinking water, site: forestomach, lesion: basal-cell carcinoma, dosed 50 weeks, study length 125 weeks): 26.4 mg/kg/day | TD50 (rat, strain Fischer 344, females, in drinking water, site: forestomach, lesion: papilloma, dosed 50 weeks, study length 125 weeks): 9.66 mg/kg/day | TD50 (rat, strain Fischer 344, females, in drinking water, site: liver, lesion: one or several types, types not named, dosed 50 weeks, study length 125 weeks): 9.1 mg/kg/day

CC(=O)Nc1cccc2c1Cc1ccccc1-2
TD50 (rat, strain Buffalo, females, in feed, site: adrenal gland, lesion: carcinoma, dosed 47 weeks, study length 88 weeks): 54.8 mg/kg/day | TD50 (rat, strain Buffalo, females, in feed, site: all sites, lesion: leukemia, indeterminate type, dosed 47 weeks, study length 88 weeks): 54.8 mg/kg/day | TD50 (rat, strain Buffalo, females, in feed, site: ovary, lesion: granulosa-cell carcinoma, dosed 47 weeks, study length 88 weeks): 54.8 mg/kg/day | TD50 (rat, strain Buffalo, females, in feed, site: pituitary gland, lesion: adenoma, dosed 47 weeks, study length 88 weeks): 43.5 mg/kg/day | TD50 (rat, strain Buffalo, females, in feed, site: uterus, lesion: carcinosarcoma, dosed 47 weeks, study length 88 weeks): 54.8 mg/kg/day

CC(C)O
carcinogen call (mouse, strain Charles River CD1, females, inhaled, site: kidney, lesion: one or several types, types not named, dosed 54 weeks, study length 54 weeks): negative (inactive) | carcinogen call (mouse, strain Charles River CD1, females, inhaled, site: kidney, lesion: one or several types, types not named, dosed 78 weeks, study length 78 weeks): negative (inactive) | carcinogen call (mouse, strain Charles River CD1, males, inhaled, site: kidney, lesion: one or several types, types not named, dosed 54 weeks, study length 54 weeks): negative (inactive) | carcinogen call (mouse, strain Charles River CD1, males, inhaled, site: kidney, lesion: one or several types, types not named, dosed 78 weeks, study length 78 weeks): negative (inactive) | carcinogen call (rat, strain Fischer 344, females, inhaled, site: kidney, lesion: one or several types, types not named, dosed 72 weeks, study length 73 weeks): negative (inactive) | carcinogen call (rat, strain Fischer 344, females, inhaled, site: kidney, lesion: one or several types, types not named, dosed 104 weeks, study length 104 weeks): negative (inactive) | carcinogen call (rat, strain Fischer 344, males, inhaled, site: kidney, lesion: one or several types, types not named, dosed 72 weeks, study length 73 weeks): negative (inactive) | carcinogen call (rat, strain Fischer 344, males, inhaled, site: kidney, lesion: one or several types, types not named, dosed 102 weeks, study length 104 weeks): negative (inactive) | TD50 (rat, strain Fischer 344, males, inhaled, site: testis, lesion: interstitial-cell adenoma, dosed 72 weeks, study length 73 weeks): 456 mg/kg/day (inactive) | TD50 (rat, strain Fischer 344, males, inhaled, site: testis, lesion: interstitial-cell adenoma, dosed 102 weeks, study length 104 weeks): 46.4 mg/kg/day (inactive)

OCCN(CCO)C(=S)S
TD50 (mouse, strain B6AKF1, females, oral dosing, site: any site (literature study), lesion: several types, types named in the paper, dosed 79 weeks, study length 79 weeks): 138 mg/kg/day | TD50 (mouse, strain B6AKF1, females, oral dosing, site: liver, lesion: hepatoma, dosed 79 weeks, study length 79 weeks): 298 mg/kg/day | TD50 (mouse, strain B6AKF1, females, oral dosing, site: lung, lesion: adenoma, dosed 79 weeks, study length 79 weeks): 850 mg/kg/day | TD50 (mouse, strain B6AKF1, males, oral dosing, site: any site (literature study), lesion: several types, types named in the paper, dosed 79 weeks, study length 79 weeks): 45.6 mg/kg/day | TD50 (mouse, strain B6AKF1, males, oral dosing, site: liver, lesion: hepatoma, dosed 79 weeks, study length 79 weeks): 41.5 mg/kg/day | TD50 (mouse, strain B6C3F1, females, oral dosing, site: any site (literature study), lesion: several types, types named in the paper, dosed 79 weeks, study length 79 weeks): 48.4 mg/kg/day | TD50 (mouse, strain B6C3F1, females, oral dosing, site: liver, lesion: hepatoma, dosed 79 weeks, study length 79 weeks): 56.4 mg/kg/day | TD50 (mouse, strain B6C3F1, females, oral dosing, site: lung, lesion: adenoma, dosed 79 weeks, study length 79 weeks): 1080 mg/kg/day | TD50 (mouse, strain B6C3F1, males, oral dosing, site: any site (literature study), lesion: several types, types named in the paper, dosed 79 weeks, study length 79 weeks): 27.8 mg/kg/day | TD50 (mouse, strain B6C3F1, males, oral dosing, site: liver, lesion: hepatoma, dosed 79 weeks, study length 79 weeks): 34.5 mg/kg/day

COc1cc(C=NNC(=O)c2ccncc2)ccc1O
TD50 (mouse, strain Not specified, both sexes, by gavage, site: any site (literature study), lesion: several types, types named in the paper, dosed 52 weeks, study length 52 weeks): 27.4 mg/kg/day | TD50 (mouse, strain Not specified, both sexes, by gavage, site: lung, lesion: adenocarcinoma, dosed 52 weeks, study length 52 weeks): 45 mg/kg/day | TD50 (mouse, strain Not specified, both sexes, by gavage, site: mammary gland, lesion: adenocarcinoma, dosed 52 weeks, study length 52 weeks): 86.6 mg/kg/day
